Patent publication US20170080026A1, “METHOD AND COMPOUND FOR OPENING POTASSIUM CHANNELS OF MAMMAL VASCULAR SMOOTH MUSCLES IN A REMOTE CONTROL MANNER” (Tovaristvo Z Obmezhenou Vidpovidalnistu "Nanomedtrast", priority 2015, published 2017)
Like-named read-outs stand apart in the source and are kept apart here.

Test system: outgoing potassium current (IK) in rat thoracic aorta SM cells
Assay: Whole-cell outgoing K+ current (IK) recording in isolated thoracic aorta smooth muscle cells
Type: cell-based
Method: C, D show effects of potassium channel blockers (paxillin, 500 nM, and […] 10 mm) on the outgoing potassium current in smooth muscle cells of thoracic aorta not exposed to Au NPs (C) and exposed to Au NPs (D). Currents caused by single step excitations with an amplitude of 10 mV and 300 ms increments within −100 and +70 mV of outgoing potential at −60 mV.
Currents in each cell (except for leakage current) were converted into specific […], averaged and depicted versus membrane potential (mV). The data thus obtained were brought in consistency using the standard Boltzmann function with average parameters described herein. The resulting current-voltage characteristics (curves I-V) were obtained by measuring current at the end of an impulse. The data represent mean values of ±SEM (n=8).
For the purposes of the study, smooth muscle cells isolated from rat thoracic aorta using collagenase and pronase were taken. Rats were anesthetised with ketamine (37.5 mg/kg body weight, intraperitoneally) and xylazine (10 mg/kg body weight, intraperitoneally), and thoracic aorta about 1.0 . . . 1.5 cm long was removed and denuded to make it free from connective tissue. Aorta was cut into small pieces (1.5×1.5 mm) in the cooled low Ca^2+ ion content solution comprising (in mM): NaCl 140, KCl 6, MgCl2 3, D-glucose 10, HEPES 10 (pH 7.4) for 15 minutes. Vascular tissues were placed in fresh low Ca^2+ ion content solution comprising collagenase type IA 2 mg/mL (417 U/mg), pronase type E XXV 0.5 mg/ml, and bovine albumin serum 2 mg/ml. Then tissues were incubated for 30 minutes at a temperature of +37 ° C. After incubation, tissues were washed (for 2-3 minutes) twice in fresh low Ca^2+ ion content solution to remove enzymes. Cells were dispersed by stirring using a glass pipette and then placed in modified Krebs bicarbonate buffer. A certain number of muscle cells was maintained at a temperature of […] and remained functional for at least 4 hours. […]

| SMILES | effect on Au NPs-induced IK increment | outgoing current | effect on Au NPs-induced IK increment (SM cells exposed to Au NPs) |
| --- | --- | --- | --- |
| CC[N+](CC)(CC)CC [tetraethylammonium] | stopped Au NPs-induced IK increment | 3±1 pA/pF |  |
| CC(C)(O)[C@H]1O[C@H]2CC[C@@]3(C)[C@@](O)(CC[C@H]4Cc5c([nH]c6ccccc56)[C@@]43C)C2=CC1=O [Paxillin, paxillin] |  |  | stopped Au NPs-induced IK increment |
